Values quoted from earlier work in PMC9851200, “Multiparameter phenotypic screening for endogenous TFEB and TFE3 translocation identifies novel chemical series modulating lysosome function” (Autophagy, 2022).

What was measured:
Parameters in all cases: method as in original PKIS2 published data
[1] = target: kinases (KINOMEscan panel) (Homo sapiens, UniProt O43683); details: kinase BUB1; Published KINOMEscan; ref original PKIS2 published data; cited from earlier work
[2] = target: kinases (KINOMEscan panel) (Homo sapiens, UniProt P08922); details: kinase ROS1; Published KINOMEscan; ref original PKIS2 published data; cited from earlier work
[3] = target: kinases (KINOMEscan panel) (Homo sapiens, UniProt P24941); details: CDK2; Published KINOMEscan; ref original PKIS2 published data; cited from earlier work
[4] = target: kinases (KINOMEscan panel) (Homo sapiens, UniProt P29317); details: EPHA2; Published KINOMEscan; ref original PKIS2 published data; cited from earlier work
[5] = target: kinases (KINOMEscan panel) (Homo sapiens, UniProt P37023); details: ACVRL1; Published KINOMEscan; ref original PKIS2 published data; cited from earlier work
[6] = target: T1, kinases (KINOMEscan panel) (Homo sapiens, UniProt Q6PHR2); details: kinase ULK3; Published KINOMEscan; ref original PKIS2 published data; cited from earlier work
T1 sequence (Q6PHR2 1-472): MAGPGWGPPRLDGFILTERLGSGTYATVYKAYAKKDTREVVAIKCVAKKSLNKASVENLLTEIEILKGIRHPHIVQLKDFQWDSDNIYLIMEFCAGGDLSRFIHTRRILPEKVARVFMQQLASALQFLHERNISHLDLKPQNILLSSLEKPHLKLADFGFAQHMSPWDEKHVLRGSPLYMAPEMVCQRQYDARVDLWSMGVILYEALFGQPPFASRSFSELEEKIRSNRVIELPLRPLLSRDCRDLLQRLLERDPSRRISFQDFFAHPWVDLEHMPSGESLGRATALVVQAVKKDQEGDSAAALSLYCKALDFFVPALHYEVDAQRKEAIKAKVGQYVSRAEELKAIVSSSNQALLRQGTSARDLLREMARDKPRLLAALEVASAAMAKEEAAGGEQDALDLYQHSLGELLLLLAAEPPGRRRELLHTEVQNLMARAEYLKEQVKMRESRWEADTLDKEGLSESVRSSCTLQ

[7] = target: T2, kinases (KINOMEscan panel) (Homo sapiens, UniProt Q86YV6); details: kinase MYLK4; Published KINOMEscan; ref original PKIS2 published data; cited from earlier work
T2 sequence (Q86YV6 1-388): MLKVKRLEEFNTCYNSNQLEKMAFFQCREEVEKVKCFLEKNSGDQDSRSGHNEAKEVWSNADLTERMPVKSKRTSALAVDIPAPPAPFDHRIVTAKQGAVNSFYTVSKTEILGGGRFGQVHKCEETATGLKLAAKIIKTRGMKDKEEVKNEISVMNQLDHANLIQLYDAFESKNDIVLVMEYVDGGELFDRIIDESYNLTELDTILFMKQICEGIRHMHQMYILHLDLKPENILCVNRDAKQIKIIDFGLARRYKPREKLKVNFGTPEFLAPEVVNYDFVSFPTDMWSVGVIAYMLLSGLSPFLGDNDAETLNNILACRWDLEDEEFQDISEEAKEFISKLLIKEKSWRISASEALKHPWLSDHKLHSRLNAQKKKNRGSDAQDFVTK

[8] = target: T3, kinases (KINOMEscan panel) (Homo sapiens, UniProt Q92630); details: DYRK2; Published KINOMEscan; ref original PKIS2 published data; cited from earlier work
T3 sequence (Q92630 1-601): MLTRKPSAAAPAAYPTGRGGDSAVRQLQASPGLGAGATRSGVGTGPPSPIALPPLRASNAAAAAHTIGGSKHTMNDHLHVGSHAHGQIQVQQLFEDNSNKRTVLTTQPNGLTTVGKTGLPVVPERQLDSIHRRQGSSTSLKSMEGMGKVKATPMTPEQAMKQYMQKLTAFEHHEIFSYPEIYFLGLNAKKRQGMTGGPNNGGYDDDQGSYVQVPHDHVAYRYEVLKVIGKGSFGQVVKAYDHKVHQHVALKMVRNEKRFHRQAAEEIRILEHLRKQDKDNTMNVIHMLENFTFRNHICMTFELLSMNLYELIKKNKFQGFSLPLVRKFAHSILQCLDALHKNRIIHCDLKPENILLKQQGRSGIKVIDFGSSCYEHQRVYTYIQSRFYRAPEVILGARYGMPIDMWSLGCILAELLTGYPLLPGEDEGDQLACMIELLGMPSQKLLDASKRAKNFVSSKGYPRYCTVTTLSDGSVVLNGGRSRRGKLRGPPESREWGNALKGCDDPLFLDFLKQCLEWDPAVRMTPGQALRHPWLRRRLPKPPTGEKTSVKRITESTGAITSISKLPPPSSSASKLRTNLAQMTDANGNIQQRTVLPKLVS

[9] = target: kinases (KINOMEscan panel) (Homo sapiens, UniProt Q96NX5); details: CAMK1G; Published KINOMEscan; ref original PKIS2 published data; cited from earlier work
Sequence of kinases (KINOMEscan panel) (Homo sapiens, UniProt Q96NX5) (Q96NX5 whole entry): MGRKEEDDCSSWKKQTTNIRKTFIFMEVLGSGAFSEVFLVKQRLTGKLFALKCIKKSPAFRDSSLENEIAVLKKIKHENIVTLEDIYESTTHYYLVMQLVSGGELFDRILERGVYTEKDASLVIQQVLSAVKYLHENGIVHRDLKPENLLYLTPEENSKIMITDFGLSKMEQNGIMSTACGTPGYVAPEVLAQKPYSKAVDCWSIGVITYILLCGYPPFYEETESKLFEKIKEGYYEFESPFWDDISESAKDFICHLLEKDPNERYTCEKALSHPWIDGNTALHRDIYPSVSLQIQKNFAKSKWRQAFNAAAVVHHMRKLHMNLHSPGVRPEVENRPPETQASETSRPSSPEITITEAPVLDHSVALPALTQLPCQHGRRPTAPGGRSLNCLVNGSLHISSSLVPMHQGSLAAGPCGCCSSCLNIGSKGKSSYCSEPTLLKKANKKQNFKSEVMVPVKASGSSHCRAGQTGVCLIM

Sequence of kinases (KINOMEscan panel) (Homo sapiens, UniProt P08922) (P08922 28-2347): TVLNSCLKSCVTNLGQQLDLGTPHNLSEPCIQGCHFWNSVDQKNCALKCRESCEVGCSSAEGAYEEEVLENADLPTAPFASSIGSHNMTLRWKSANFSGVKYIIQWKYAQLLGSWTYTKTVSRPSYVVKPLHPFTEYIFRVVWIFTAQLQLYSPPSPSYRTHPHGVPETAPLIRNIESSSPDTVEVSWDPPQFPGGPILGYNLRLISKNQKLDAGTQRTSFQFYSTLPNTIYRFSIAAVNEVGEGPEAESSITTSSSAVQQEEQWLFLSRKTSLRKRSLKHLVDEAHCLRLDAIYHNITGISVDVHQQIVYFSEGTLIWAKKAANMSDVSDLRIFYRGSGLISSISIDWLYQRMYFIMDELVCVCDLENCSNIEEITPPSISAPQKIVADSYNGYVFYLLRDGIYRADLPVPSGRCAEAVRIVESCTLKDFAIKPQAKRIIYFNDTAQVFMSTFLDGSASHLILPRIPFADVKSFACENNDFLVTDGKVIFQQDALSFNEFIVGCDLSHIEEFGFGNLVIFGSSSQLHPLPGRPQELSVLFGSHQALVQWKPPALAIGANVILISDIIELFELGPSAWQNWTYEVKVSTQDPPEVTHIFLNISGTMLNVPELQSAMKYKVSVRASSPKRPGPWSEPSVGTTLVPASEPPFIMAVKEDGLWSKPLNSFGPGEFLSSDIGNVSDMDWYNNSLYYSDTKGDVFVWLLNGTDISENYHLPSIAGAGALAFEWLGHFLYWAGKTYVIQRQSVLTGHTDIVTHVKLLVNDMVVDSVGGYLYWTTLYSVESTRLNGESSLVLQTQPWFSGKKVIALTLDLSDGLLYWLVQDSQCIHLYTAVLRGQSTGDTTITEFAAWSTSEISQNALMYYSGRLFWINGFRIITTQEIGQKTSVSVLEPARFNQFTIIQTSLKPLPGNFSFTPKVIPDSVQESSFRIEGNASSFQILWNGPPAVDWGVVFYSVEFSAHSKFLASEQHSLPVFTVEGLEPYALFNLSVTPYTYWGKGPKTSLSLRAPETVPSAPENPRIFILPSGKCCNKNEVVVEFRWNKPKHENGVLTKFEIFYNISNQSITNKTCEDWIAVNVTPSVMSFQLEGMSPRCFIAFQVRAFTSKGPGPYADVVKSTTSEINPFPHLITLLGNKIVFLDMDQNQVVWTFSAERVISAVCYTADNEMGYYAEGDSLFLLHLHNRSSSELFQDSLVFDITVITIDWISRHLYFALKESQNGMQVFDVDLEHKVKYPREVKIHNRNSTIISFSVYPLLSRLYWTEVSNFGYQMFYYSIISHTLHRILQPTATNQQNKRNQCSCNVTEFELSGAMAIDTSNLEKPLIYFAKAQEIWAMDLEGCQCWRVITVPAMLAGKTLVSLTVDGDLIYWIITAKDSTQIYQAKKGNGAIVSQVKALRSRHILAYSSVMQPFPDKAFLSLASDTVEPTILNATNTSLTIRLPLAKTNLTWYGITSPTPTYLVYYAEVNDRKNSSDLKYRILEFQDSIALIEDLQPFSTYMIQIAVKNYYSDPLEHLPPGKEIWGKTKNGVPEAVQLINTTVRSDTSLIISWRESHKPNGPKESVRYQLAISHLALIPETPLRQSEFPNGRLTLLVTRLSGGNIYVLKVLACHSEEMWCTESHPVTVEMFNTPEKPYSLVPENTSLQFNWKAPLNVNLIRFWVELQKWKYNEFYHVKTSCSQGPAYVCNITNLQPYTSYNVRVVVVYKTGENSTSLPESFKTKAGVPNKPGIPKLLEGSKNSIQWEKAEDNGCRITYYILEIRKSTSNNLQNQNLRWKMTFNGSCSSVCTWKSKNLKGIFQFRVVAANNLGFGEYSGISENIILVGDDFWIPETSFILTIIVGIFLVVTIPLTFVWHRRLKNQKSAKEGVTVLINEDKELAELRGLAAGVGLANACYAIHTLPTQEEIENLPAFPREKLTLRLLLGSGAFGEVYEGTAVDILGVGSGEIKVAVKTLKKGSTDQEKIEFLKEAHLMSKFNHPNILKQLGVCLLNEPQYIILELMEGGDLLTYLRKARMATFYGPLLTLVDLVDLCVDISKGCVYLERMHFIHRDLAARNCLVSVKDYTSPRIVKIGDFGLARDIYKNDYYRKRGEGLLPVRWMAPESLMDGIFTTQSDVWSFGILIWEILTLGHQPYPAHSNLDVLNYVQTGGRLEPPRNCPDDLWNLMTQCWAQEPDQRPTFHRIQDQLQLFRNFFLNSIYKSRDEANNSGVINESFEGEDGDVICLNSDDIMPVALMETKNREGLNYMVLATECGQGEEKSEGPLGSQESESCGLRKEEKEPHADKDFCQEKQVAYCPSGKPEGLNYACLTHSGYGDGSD
Sequence of kinases (KINOMEscan panel) (Homo sapiens, UniProt O43683) (O43683 whole entry): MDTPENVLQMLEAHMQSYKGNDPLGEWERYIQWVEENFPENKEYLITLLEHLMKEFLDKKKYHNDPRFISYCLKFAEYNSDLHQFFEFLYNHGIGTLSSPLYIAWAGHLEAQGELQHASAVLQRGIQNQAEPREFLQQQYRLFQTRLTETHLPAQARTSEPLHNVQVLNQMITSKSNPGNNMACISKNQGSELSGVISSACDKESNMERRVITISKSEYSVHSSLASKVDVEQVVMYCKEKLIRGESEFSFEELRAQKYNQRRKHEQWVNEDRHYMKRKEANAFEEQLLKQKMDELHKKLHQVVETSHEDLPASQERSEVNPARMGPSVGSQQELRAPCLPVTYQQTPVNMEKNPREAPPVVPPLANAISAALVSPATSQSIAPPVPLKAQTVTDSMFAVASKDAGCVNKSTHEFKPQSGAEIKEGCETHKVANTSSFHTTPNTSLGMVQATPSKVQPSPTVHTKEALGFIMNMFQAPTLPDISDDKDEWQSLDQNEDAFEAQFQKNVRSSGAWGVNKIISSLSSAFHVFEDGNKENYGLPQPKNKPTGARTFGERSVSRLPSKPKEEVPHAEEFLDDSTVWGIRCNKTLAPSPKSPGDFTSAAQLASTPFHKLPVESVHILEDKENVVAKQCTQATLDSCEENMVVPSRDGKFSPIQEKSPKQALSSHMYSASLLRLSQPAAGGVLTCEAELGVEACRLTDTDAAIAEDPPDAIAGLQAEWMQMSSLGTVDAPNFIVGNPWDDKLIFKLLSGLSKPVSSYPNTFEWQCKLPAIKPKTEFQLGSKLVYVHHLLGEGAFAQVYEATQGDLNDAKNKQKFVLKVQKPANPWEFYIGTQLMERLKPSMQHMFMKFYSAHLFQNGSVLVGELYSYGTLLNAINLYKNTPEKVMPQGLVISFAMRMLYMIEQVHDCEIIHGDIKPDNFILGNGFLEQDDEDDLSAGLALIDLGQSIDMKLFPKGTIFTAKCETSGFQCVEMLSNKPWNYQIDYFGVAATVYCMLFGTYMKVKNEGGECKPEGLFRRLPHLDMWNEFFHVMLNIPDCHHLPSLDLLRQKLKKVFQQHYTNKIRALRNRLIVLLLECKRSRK
Sequence of kinases (KINOMEscan panel) (Homo sapiens, UniProt P37023) (P37023 22-503): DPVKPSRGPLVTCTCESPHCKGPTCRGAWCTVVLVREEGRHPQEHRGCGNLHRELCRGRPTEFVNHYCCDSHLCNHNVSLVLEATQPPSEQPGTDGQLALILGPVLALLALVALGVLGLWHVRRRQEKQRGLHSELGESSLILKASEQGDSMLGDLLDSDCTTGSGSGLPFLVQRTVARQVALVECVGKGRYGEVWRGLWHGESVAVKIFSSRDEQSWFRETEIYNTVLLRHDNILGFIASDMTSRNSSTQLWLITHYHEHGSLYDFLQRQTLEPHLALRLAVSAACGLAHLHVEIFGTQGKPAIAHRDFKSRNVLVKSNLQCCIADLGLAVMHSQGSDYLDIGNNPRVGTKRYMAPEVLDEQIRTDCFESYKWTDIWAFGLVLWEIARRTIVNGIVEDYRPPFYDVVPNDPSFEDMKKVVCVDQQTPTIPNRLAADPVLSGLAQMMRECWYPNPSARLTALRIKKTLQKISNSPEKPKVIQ

Compound: Cc1cccc(-c2nc(Nc3ccncc3)c3ccccc3n2)n1 [NK215]
- KINOMEscan BUB1 [1]: 0
- KINOMEscan ROS1 [2]: 0
- KINOMEscan CDK2 [3]: 0
- KINOMEscan EPHA2 [4]: 18
- KINOMEscan ACVRL1 [5]: 65
- KINOMEscan ULK3 [6]: 8
- KINOMEscan MYLK4 [7]: 7
- KINOMEscan DYRK2 [8]: 0
- KINOMEscan CAMK1G [9]: 0
